# PubChem BioAssay (NCI)
#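 A five-concentration, 48-hour dose response in 96-well plates underlies each endpoint, interpolated linearly between surrounding concentrations. TGI: total growth inhibition.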
# Columns and labels:
# Test in all cases: NCI anticancer screen, dose series, 48 h
# NCI-H460 lung = system: NCI-H460 lung
# A498 renal = system: A498 renal
# A549 NSCLC = system: A549 NSCLC
# SK-MEL-2 melanoma = system: SK-MEL-2 melanoma
# BT-549 breast = system: BT-549 breast
# HCC-2998 colon = system: HCC-2998 colon
# MDA-MB-231 breast = system: MDA-MB-231 breast
# HCT-15 colon = system: HCT-15 colon
# RPMI-8226 leukemia = system: RPMI-8226 leukemia
# NCI/ADR-RES ovarian = system: NCI/ADR-RES ovarian
# LOX IMVI melanoma = system: LOX IMVI melanoma
# ACHN renal = system: ACHN renal
# EKVX NSCLC = system: EKVX NSCLC
# K-562 leukemia = system: K-562 leukemia
# UACC-62 melanoma = system: UACC-62 melanoma
# SF-295 CNS = system: SF-295 CNS
# MCF7 breast = system: MCF7 breast
# MOLT-4 leukemia = system: MOLT-4 leukemia
# SN12C renal = system: SN12C renal
# HL-60(TB) leukemia = system: HL-60(TB) leukemia
# OVCAR-3 ovarian = system: OVCAR-3 ovarian
# SNB-75 CNS = system: SNB-75 CNS
# U251 CNS = system: U251 CNS
# SK-OV-3 ovarian = system: SK-OV-3 ovarian
# NCI-H23 lung = system: NCI-H23 lung
# MDA-N = system: MDA-N
# HS 578T breast = system: HS 578T breast
# UACC-257 melanoma = system: UACC-257 melanoma
# KM12 colon = system: KM12 colon
# OVCAR-5 ovarian = system: OVCAR-5 ovarian
# SK-MEL-5 melanoma = system: SK-MEL-5 melanoma
# SNB-19 CNS = system: SNB-19 CNS
# M14 melanoma = system: M14 melanoma
# SW-620 colon = system: SW-620 colon
# RXF 393 renal = system: RXF 393 renal
# SF-539 CNS = system: SF-539 CNS
# SK-MEL-28 melanoma = system: SK-MEL-28 melanoma
# PC-3 prostate = system: PC-3 prostate
# T-47D breast = system: T-47D breast
# HT29 colon = system: HT29 colon
# NCI-H226 lung = system: NCI-H226 lung
# UO-31 renal = system: UO-31 renal
# SF-268 CNS = system: SF-268 CNS
# OVCAR-8 ovarian = system: OVCAR-8 ovarian
# CAKI-1 renal = system: CAKI-1 renal
# OVCAR-4 ovarian = system: OVCAR-4 ovarian
# CCRF-CEM leukemia = system: CCRF-CEM leukemia
# MDA-MB-435 = system: MDA-MB-435
# HOP-62 NSCLC = system: HOP-62 NSCLC
# COLO 205 colon = system: COLO 205 colon
# 786-0 renal = system: 786-0 renal
# MALME-3M melanoma = system: MALME-3M melanoma
# HOP-92 NSCLC = system: HOP-92 NSCLC
# HCT-116 colon = system: HCT-116 colon
# TK-10 renal = system: TK-10 renal
# DU-145 prostate = system: DU-145 prostate
# NCI-H522 lung = system: NCI-H522 lung
# SR leukemia = system: SR leukemia
# IGROV1 ovarian = system: IGROV1 ovarian
compound,measurement,setting,value
CCOC(=O)C(C)c1nc2cc(C(F)(F)F)ccc2[nH]c1=O (stereo not drawn),TGI,NCI-H460 lung,> 100 µM
same,TGI,A498 renal,> 100 µM
same,TGI,A549 NSCLC,> 100 µM
same,TGI,SK-MEL-2 melanoma,> 100 µM
same,TGI,BT-549 breast,> 100 µM
same,TGI,HCC-2998 colon,> 100 µM
same,TGI,MDA-MB-231 breast,> 100 µM
same,TGI,HCT-15 colon,> 100 µM
same,TGI,RPMI-8226 leukemia,> 100 µM
same,TGI,NCI/ADR-RES ovarian,> 100 µM
same,TGI,LOX IMVI melanoma,> 100 µM
same,TGI,ACHN renal,> 100 µM
same,TGI,EKVX NSCLC,> 100 µM
same,TGI,K-562 leukemia,> 100 µM
same,TGI,UACC-62 melanoma,> 100 µM
same,TGI,SF-295 CNS,> 100 µM
same,TGI,MCF7 breast,> 100 µM
same,TGI,MOLT-4 leukemia,> 100 µM
same,TGI,SN12C renal,> 100 µM
same,TGI,HL-60(TB) leukemia,> 100 µM
same,TGI,OVCAR-3 ovarian,> 100 µM
same,TGI,SNB-75 CNS,> 100 µM
same,TGI,U251 CNS,> 100 µM
same,TGI,SK-OV-3 ovarian,> 100 µM
same,TGI,NCI-H23 lung,> 100 µM
same,TGI,MDA-N,> 100 µM
same,TGI,HS 578T breast,> 100 µM
same,TGI,UACC-257 melanoma,> 100 µM
same,TGI,KM12 colon,> 100 µM
same,TGI,OVCAR-5 ovarian,> 100 µM
same,TGI,SK-MEL-5 melanoma,> 100 µM
same,TGI,SNB-19 CNS,> 100 µM
same,TGI,M14 melanoma,> 100 µM
same,TGI,SW-620 colon,> 100 µM
same,TGI,RXF 393 renal,> 100 µM
same,TGI,SF-539 CNS,> 100 µM
same,TGI,SK-MEL-28 melanoma,> 100 µM
same,TGI,PC-3 prostate,> 100 µM
same,TGI,T-47D breast,67.7 µM
same,TGI,HT29 colon,> 100 µM
same,TGI,NCI-H226 lung,> 100 µM
same,TGI,UO-31 renal,> 100 µM
same,TGI,SF-268 CNS,> 100 µM
same,TGI,OVCAR-8 ovarian,> 100 µM
same,TGI,CAKI-1 renal,> 100 µM
same,TGI,OVCAR-4 ovarian,> 100 µM
same,TGI,CCRF-CEM leukemia,> 100 µM
same,TGI,MDA-MB-435,> 100 µM
same,TGI,HOP-62 NSCLC,> 100 µM
same,TGI,COLO 205 colon,> 100 µM
same,TGI,786-0 renal,> 100 µM
same,TGI,MALME-3M melanoma,> 100 µM
same,TGI,HOP-92 NSCLC,> 100 µM
same,TGI,HCT-116 colon,> 100 µM
same,TGI,TK-10 renal,> 100 µM
same,TGI,DU-145 prostate,> 100 µM
C=C(C[C@@H](O)[C@H](C)NC(=O)OCc1ccccc1)C(=O)OC(C)(C)C,TGI,NCI-H460 lung,> 100 µM
same,TGI,A498 renal,> 100 µM
same,TGI,A549 NSCLC,> 100 µM
same,TGI,SK-MEL-2 melanoma,> 100 µM
same,TGI,BT-549 breast,> 100 µM
same,TGI,HCC-2998 colon,> 100 µM
same,TGI,MDA-MB-231 breast,> 100 µM
same,TGI,HCT-15 colon,> 100 µM
same,TGI,RPMI-8226 leukemia,> 100 µM
same,TGI,NCI/ADR-RES ovarian,> 100 µM
same,TGI,LOX IMVI melanoma,> 100 µM
same,TGI,ACHN renal,> 100 µM
same,TGI,EKVX NSCLC,> 100 µM
same,TGI,K-562 leukemia,> 100 µM
same,TGI,UACC-62 melanoma,> 100 µM
same,TGI,SF-295 CNS,> 100 µM
same,TGI,MCF7 breast,> 100 µM
same,TGI,MOLT-4 leukemia,> 100 µM
same,TGI,NCI-H522 lung,> 100 µM
same,TGI,SN12C renal,> 100 µM
same,TGI,HL-60(TB) leukemia,> 100 µM
same,TGI,OVCAR-3 ovarian,> 100 µM
same,TGI,SNB-75 CNS,> 100 µM
same,TGI,U251 CNS,> 100 µM
same,TGI,SK-OV-3 ovarian,> 100 µM
same,TGI,NCI-H23 lung,> 100 µM
same,TGI,MDA-N,> 100 µM
same,TGI,HS 578T breast,> 100 µM
same,TGI,UACC-257 melanoma,> 100 µM
same,TGI,SR leukemia,> 100 µM
same,TGI,KM12 colon,> 100 µM
same,TGI,OVCAR-5 ovarian,> 100 µM
same,TGI,SK-MEL-5 melanoma,> 100 µM
same,TGI,SNB-19 CNS,> 100 µM
same,TGI,M14 melanoma,> 100 µM
same,TGI,SW-620 colon,> 100 µM
same,TGI,SF-539 CNS,> 100 µM
same,TGI,SK-MEL-28 melanoma,> 100 µM
same,TGI,PC-3 prostate,> 100 µM
same,TGI,T-47D breast,67.3 µM
same,TGI,HT29 colon,> 100 µM
same,TGI,NCI-H226 lung,> 100 µM
same,TGI,UO-31 renal,> 100 µM
same,TGI,SF-268 CNS,> 100 µM
same,TGI,OVCAR-8 ovarian,> 100 µM
same,TGI,CAKI-1 renal,> 100 µM
same,TGI,OVCAR-4 ovarian,> 100 µM
same,TGI,CCRF-CEM leukemia,61.7 µM
same,TGI,MDA-MB-435,> 100 µM
same,TGI,HOP-62 NSCLC,> 100 µM
same,TGI,COLO 205 colon,> 100 µM
same,TGI,MALME-3M melanoma,> 100 µM
same,TGI,IGROV1 ovarian,> 100 µM
same,TGI,HOP-92 NSCLC,> 100 µM
same,TGI,HCT-116 colon,> 100 µM
same,TGI,TK-10 renal,> 100 µM
same,TGI,DU-145 prostate,> 100 µM
